Tests used:
[1] = test system: TIL; test: Cytokine expression of TILs after overnight anti-CD3/CD28 bead stimulation; assay type: cell-based
Description: Control or decitabine-treated cryopreserved TILs were thawed and stained for flow cytometry analysis.

[2] = test system: TIL; test: AKT inhibitor (ipatasertib) added during ex vivo TIL expansion: expansion, viability, phenotype; assay type: cell-based
Protocol: Patient tumors from different indications were received, fragmented, and subjected to an expansion protocol for TIL manufacturing. Different doses (0.3 μM and 1 μM) of the pan-AKT inhibitor ipatasertib were added to the culture during ex vivo expansion. The expansion potential, as well as the phenotypic and functional characteristics were evaluated on the final TIL product. Eight tumors, including tumors from melanoma, NSCLC, head and neck cancer, ovarian cancer, and breast cancer, were used in combination with the Gen 2 process. […] Expansion, viability and T cell distribution in control and AKT inhibitor-treated TILs are shown. TILs were left untreated or treated with increasing concentrations of the pan-AKT inhibitor ipatasertib. Treatment was added either during the pre-REP and REP (blue bars) or during the REP stage only (purple bars). Fold expansion and viability of TIL at the end of the 22-day expansion process are shown. Frequency of CD8^+, CD4^+ and CD4^+ (Foxp3^+) cells after the expansion process on cryopreserved cells are also shown.

[3] = target: PD-L1 (Homo sapiens, UniProt Q9NZQ7); test: Hek-IL-18 SEAP reporter assay of CCR8 and CCR8.2 stimulated with PD-L1; assay type: cell-based; conditions: 650 nm, IL-18 standard
Protocol: The biological function of the CCR constructs was tested with Hek-IL-18 SEAP reporter lines. CCR8 and CCR8.2 transduced HekIL-18 reporter cells (5×10^4) were stimulated with the indicated concentration of PD-L1 (His tagged) in the presence of anti-His antibody (antibody:protein ratio=2:1; e.g., for 5 μg/mL PD-L1, add 10 μg/mL anti-His antibody). After 24 hours, supernatants were harvested, and SEAP level was determined with a spectrophotometer at 650 nm after adding Quanti-blue solution. CCR12 and CCR12.2 transduced HekIL-18 reporter cells (5×10^4) were stimulated with the indicated concentration of TROP-2 (His tagged) in the presence of anti-His antibody (antibody:protein ratio=2:1). After 24 hours, supernatants were harvested, and SEAP level was determined with a spectrophotometer at 650 nm after adding Quanti-blue solution.

[4] = target: T1, PD-L1 (human, UniProt Q9NZQ7 19-238, limits assumed); test: EC50 of anti-PD-L1 antibody clone; assay not given
T1 construct: also called hPD-L1; CD274

[5] = target: T2, human PD-L1 on hPD-L1 Raji cells (human, UniProt Q9NZQ7 19-290); test: flow cytometry on hPD-L1 Raji cells, titration in the presence of the other antibody
T2 construct: whole, on cells
T2 sequence (Q9NZQ7 19-290): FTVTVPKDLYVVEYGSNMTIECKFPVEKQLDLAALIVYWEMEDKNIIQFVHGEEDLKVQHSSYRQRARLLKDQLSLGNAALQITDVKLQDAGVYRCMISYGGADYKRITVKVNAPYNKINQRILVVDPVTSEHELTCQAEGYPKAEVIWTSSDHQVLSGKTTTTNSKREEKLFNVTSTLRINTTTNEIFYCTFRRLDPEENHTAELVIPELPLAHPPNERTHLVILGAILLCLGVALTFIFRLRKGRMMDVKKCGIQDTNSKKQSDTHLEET

T1 sequence (Q9NZQ7 19-238 limits assumed): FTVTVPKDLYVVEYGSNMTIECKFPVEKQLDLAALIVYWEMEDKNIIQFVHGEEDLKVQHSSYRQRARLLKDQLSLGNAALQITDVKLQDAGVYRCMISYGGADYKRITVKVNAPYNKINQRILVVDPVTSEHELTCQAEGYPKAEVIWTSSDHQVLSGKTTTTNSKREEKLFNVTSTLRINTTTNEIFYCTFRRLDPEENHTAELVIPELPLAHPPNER
PD-L1 (Homo sapiens, UniProt Q9NZQ7), sequence (Q9NZQ7 19-290): as the sequence (Q9NZQ7 19-290) above

CC(C)NC[C@@H](C(=O)N1CCN(c2ncnc3c2[C@H](C)C[C@H]3O)CC1)c1ccc(Cl)cc1 [ipatasertib]
frequency of IFNγ+TNFα+CD8+ T cells [1]: increase | cytokine output following stimulation ([1]; 1 μM at pre-REP and REP, anti-CD3/CD28 beads overnight, bead-to-cell ratio 1:5): higher cytokine output | IL-7R and CXCR3 expression on CD8+ TILs [2]: increase | TOX expression following stimulation [2]: lower | frequency of CD8+ TEMRA cells [2]: increase | frequency of less differentiated CD8+CD69−CD39− T cells on CD8+ and CD4+ TILs [2]: increases | expansion and viability of TILs relative to controls ([2]; 1 μM dose): equivalent | expression of CD38 and transcription factors T-bet and TOX in CD39− CD69− cells ([2]; 1 μM dose): reduced expression | population of less differentiated CD39− CD69− cells ([2]; 1 μM dose): doubled | T cell ratios (CD8+, CD4+, CD4+ Foxp3+) ([2]; after the expansion process): without affecting | TIL expansion and viability ([2]; pre-REP and REP or REP only, end of 22-day expansion): maintains

IL-18: IL-18 standard in Hek-IL-18 SEAP reporter assay
IL-18 stimulation equivalent to an OD value of 0.5 [3]: about 3.175 pg/mL

B1: 19H9-IgG4-Flag (antibody)
chain: QVQLQESGGGLVKPGGSLRLSCAASGFTFSSYSMNWVRQAPGKGLEWVSGINTAGDTHYPESVKGRFTISRDNARNSLNLQMNSLRAEDTAVYYCVRERVEREYSGYDAFDIWGQGTTVTVSAGGGGSGGGGSGGGGSGAPNFMLTQPHSVSESLGKTVTISCTGSSGSIARKFVQWYQQRPGSSPTTVIYENNQRPSGVSDRFSGSIGSSSNSASLTISGLKTEDEADYYCQSYDSSNVVFGGGTKVTVL
EC50 [4]: 0.125 nM

B2: 19H9-IgG4-Flag (antibody)
chain: B1 chain
notes: The order of the parts and the format of the tested protein are not spelled out; Detected with anti-Flag-AF488; also called 19H-IgG4-Flag; scFv-Fc antibody 19H9; not shown: IgG4 part, known only from the name 19H9-IgG4-Flag; Flag tag
binding result [5]: binds

B3: 38A1-IgG4-HA (antibody)
chain: EVQLVESGGGLVQPGGSLRLSCAASGFTFSNYAMSWVRQAPGKGLEWVSTISGSGGTTYYADSVKGRFTISRDNSKNTLYLQMNSLRVEDTAVYYCAKDWFRSSSPDAFDIWGQGTTVTVSAGGGGSGGGGSGGGGSGAPSYVLTQPPSVSVAPGQTARITCGGNNIGRKIVHWYQQRPGQAPVLVIYYDTDRPAGIPERFSGSNSGNMATLTISTVGAGDEADYYCQVWDTGSDHVVFGGGTKLTVL
notes: The order of the parts and the format (scFv-IgG4 Fc-HA) of the tested protein are not spelled out; Detected with anti-HA-APC; also called anti-PD-L1 Ab clone 38A1-IgG4-HA; scFv-Fc antibody 38A1; not shown: IgG4 part, known only from the name 38A1-IgG4-HA; HA tag
binding result [5]: binds

B4: 38A1-IgG4-HA (antibody)
chain: B3 chain
EC50 [4]: 0.404 nM

— patent US20260021181A1, “CHIMERIC COSTIMULATORY RECEPTORS, CHEMOKINE RECEPTORS, AND THE USE OF SAME IN CELLULAR IMMUNOTHERAPIES” (Iovance Biotherapeutics, Inc., priority 2022, published 2026)
